# Measured values taken from article PMC11364775, “Ion occupancy of the selectivity filter controls opening of a cytoplasmic gate in the K2P channel TALK-2” (Nature Communications, 2024).
# Positions count from the first letter of the chain named. Read-outs that look alike come from different tables or passages of the source.
# What was measured:
# WT TALK-2 channels = target: T1, WT TALK-2 channels (Homo sapiens, UniProt Q96T54); test: Pore blocker inhibition (dose-response, residual currents) in inside-out patches at +40 mV; assay type: cell-based; parameters: expressed in transfected cells; host or cells: Xenopus laevis oocytes (cRNA injection), excised inside-out patches; details: for IC50: IC50 of TPenA inhibition
# T1 sequence (Q96T54 1-332): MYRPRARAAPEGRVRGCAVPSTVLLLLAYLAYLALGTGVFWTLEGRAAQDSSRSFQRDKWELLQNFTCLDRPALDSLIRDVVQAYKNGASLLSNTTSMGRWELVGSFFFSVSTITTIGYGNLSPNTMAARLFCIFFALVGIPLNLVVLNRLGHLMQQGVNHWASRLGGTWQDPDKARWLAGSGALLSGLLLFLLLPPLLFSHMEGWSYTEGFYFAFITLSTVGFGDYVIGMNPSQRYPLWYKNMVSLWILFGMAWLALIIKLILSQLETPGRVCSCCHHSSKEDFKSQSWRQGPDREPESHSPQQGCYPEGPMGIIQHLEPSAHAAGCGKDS
# Experimental: Data shown are the mean ± s.e.m and the number (n) of independent experiments and repeats of representative measurements with similar results is indicated in the figure.
# Electrophysiological recordings: Excised patch measurements in inside-out configuration under voltage-clamp conditions were performed at room temperature (22 – 24 °C). Patch pipettes were made from thick-walled borosilicate glass GB 200TF-8P (Science Products, Germany), had resistances of 0.2–0.5 MΩ (tip diameter of 10 - 25 µm) and filled with a pipette solution (in mM): 120 KCl, 10 HEPES and 3.6 CaCl2 (pH 7.0 - 8.5 adjusted with KOH/HCl) or 120 KCl, 10 AMPSO and 3.6 CaCl2 (pH 9.0 - 10.5 adjusted with KOH/HCl). Intracellular bath solutions and compounds were applied to the cytoplasmic side of excised patches for the various K^+ channels via a gravity flow multi-barrel pipette system. Intracellular solution had the following composition (in mM): 120 KCl, 10 HEPES, 2 EGTA and 1 Pyrophosphate (pH adjusted with KOH/HCl). In other intracellular bath solutions, K^+ was replaced by Rb^+ (pH 7.4 adjusted with RbOH/HCl). Currents were recorded with an EPC10 amplifier (HEKA electronics, Germany) and sampled at 10 kHz or higher and filtered with 3 kHz (-3 dB) or higher as appropriate for sampling rate.
# Data analysis and statistics were done using Fitmaster (HEKA electronics, version: v2x73.5, Germany), Microsoft Excel 2021 (Microsoft Corporation, USA), and Igor Pro 9 software (WaveMetrics Inc., USA). Recorded currents were analyzed from stable membrane patches at a voltage defined in the respective figure legend or with a voltage protocol as indicated in the respective figure. […] Percentage inhibition or residual currents upon blocker application for a ligand (drug or bioactive lipid) was calculated from stable currents of excised membrane patches using the following Eqs. 2 and 3:2 %inhibition=1−Iinhibited/Ibasal*100 3 Residual current=100−%inhibition where Iinhibited refers to the stable current level recorded in the presence of a given concentration of a drug or bioactive lipid and Ibasal to the measured current before ligand application.
# [1] = target: T2, TALK-2 L264A mutant channels (Homo sapiens, UniProt Q96T54, L264A)
# T2 sequence (Q96T54 1-332 L264A): T1 sequence (Q96T54 1-332) with L264A
# Experimental: Oocytes were surgically removed from anesthetized adult females, treated with type II collagenase (Sigma-Aldrich/Merck, Germany) and manually defolliculated. 50 nl of a solution containing the K^+ channel specific cRNA was injected into Dumont stage V - VI oocytes and subsequently incubated at 17 °C in a solution containing (mM): 54 NaCl, 30 KCl, 2.4 NaHCO3, 0.82 MgSO4 x 7 H2O, 0.41 CaCl2, 0.33 Ca(NO3)2 x 4 H2O and 7.5 TRIS (pH 7.4 adjusted with NaOH/HCl) for 1–7 days before use. Electrophysiological recordings: Excised patch measurements in inside-out configuration under voltage-clamp conditions were performed at room temperature (22 – 24 °C). […] Currents were recorded with an EPC10 amplifier (HEKA electronics, Germany) and sampled at 10 kHz or higher and filtered with 3 kHz (-3 dB) or higher as appropriate for sampling rate.
# Recorded currents were analyzed from stable membrane patches at a voltage defined in the respective figure legend or with a voltage protocol as indicated in the respective figure. The fold activation (fold change in (tail) current amplitude) of a ligand (drug or bioactive lipid) was calculated from Eq. 1:1 Fold activationFA=Iactivated/Ibasal where Iactivated represents the stable current level in the presence of a given concentration of a respective ligand and Ibasal the measured current before ligand application. […]
# WT TREK-1 channels = WT TREK-1 channels (Rattus norvegicus, UniProt Q920B6); details: TREK-1 WT
# Chain of WT TREK-1 channels (Q920B6 whole entry): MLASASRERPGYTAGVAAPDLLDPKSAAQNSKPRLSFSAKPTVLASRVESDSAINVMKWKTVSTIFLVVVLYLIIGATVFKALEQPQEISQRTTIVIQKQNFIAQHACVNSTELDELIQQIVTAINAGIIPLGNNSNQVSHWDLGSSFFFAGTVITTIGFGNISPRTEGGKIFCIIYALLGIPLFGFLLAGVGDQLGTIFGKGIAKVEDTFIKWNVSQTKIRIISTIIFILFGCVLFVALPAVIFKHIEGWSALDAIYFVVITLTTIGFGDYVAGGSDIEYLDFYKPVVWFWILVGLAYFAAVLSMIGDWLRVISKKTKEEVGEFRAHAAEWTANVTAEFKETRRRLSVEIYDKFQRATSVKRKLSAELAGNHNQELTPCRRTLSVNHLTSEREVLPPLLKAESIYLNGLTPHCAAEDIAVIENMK
# Experimental: Data shown are the mean ± s.e.m and the number (n) of repeats of the representative measurements with similar results is indicated in the figure.
# Oocytes were surgically removed from anesthetized adult females, treated with type II collagenase (Sigma-Aldrich/Merck, Germany) and manually defolliculated. 50 nl of a solution containing the K^+ channel specific cRNA was injected into Dumont stage V - VI oocytes and subsequently incubated at 17 °C in a solution containing (mM): 54 NaCl, 30 KCl, 2.4 NaHCO3, 0.82 MgSO4 x 7 H2O, 0.41 CaCl2, 0.33 Ca(NO3)2 x 4 H2O and 7.5 TRIS (pH 7.4 adjusted with NaOH/HCl) for 1–7 days before use. Electrophysiological recordings: Excised patch measurements in inside-out configuration under voltage-clamp conditions were performed at room temperature (22 – 24 °C). Patch pipettes were made from thick-walled borosilicate glass GB 200TF-8P (Science Products, Germany), had resistances of 0.2–0.5 MΩ (tip diameter of 10 - 25 µm) and filled with a pipette solution (in mM): 120 KCl, 10 HEPES and 3.6 CaCl2 (pH 7.0 - 8.5 adjusted with KOH/HCl) or 120 KCl, 10 AMPSO and 3.6 CaCl2 (pH 9.0 - 10.5 adjusted with KOH/HCl). Intracellular bath solutions and compounds were applied to the cytoplasmic side of excised patches for the various K^+ channels via a gravity flow multi-barrel pipette system. Intracellular solution had the following composition (in mM): 120 KCl, 10 HEPES, 2 EGTA and 1 Pyrophosphate (pH adjusted with KOH/HCl). In other intracellular bath solutions, K^+ was replaced by Rb^+ (pH 7.4 adjusted with RbOH/HCl). Currents were recorded with an EPC10 amplifier (HEKA electronics, Germany) and sampled at 10 kHz or higher and filtered with 3 kHz (-3 dB) or higher as appropriate for sampling rate.
structure (smiles),measurement,setting,value
"CCCCC[N+](CCCCC)(CCCCC)CCCCC [TPenA, Tetra-pentyl-ammonium chloride]",IC50,"WT TALK-2 channels; 0.2 mM 2-APB, n = 7, legend of Fig. 5e",778 ± 116 µM
same,IC50,"WT TALK-2 channels; 0.5 mM 2-APB, n = 5, legend of Fig. 5e",215 ± 28 µM
same,IC50,"WT TALK-2 channels; 1.0 mM 2-APB, n = 16, legend of Fig. 5e",54 ± 10 µM
same,IC50,"WT TALK-2 channels; pre-activated with 0.2 mM 2-APB, +40 mV",1110 ± 411 µM
same,IC50,"WT TALK-2 channels; pre-activated with 0.5 mM 2-APB, +40 mV",225 ± 25 µM
same,Normalized currents,"WT TALK-2 channels; TALK-2 WT + 0.2 mM 2-APB, 1 µM TPenA",1.00
same,Normalized currents,"WT TALK-2 channels; TALK-2 WT + 0.2 mM 2-APB, 10 µM TPenA",0.87
same,Normalized currents,"WT TALK-2 channels; TALK-2 WT + 0.2 mM 2-APB, 100 µM TPenA",0.81
same,Normalized currents,"WT TALK-2 channels; TALK-2 WT + 0.2 mM 2-APB, 1000 µM TPenA",0.47
same,Normalized currents,"WT TALK-2 channels; TALK-2 WT + 0.2 mM 2-APB, 10000 µM TPenA",0.15
same,Normalized currents,"WT TALK-2 channels; TALK-2 WT + 0.5 mM 2-APB, 1 µM TPenA",1.02
same,Normalized currents,"WT TALK-2 channels; TALK-2 WT + 0.5 mM 2-APB, 10 µM TPenA",0.89
same,Normalized currents,"WT TALK-2 channels; TALK-2 WT + 0.5 mM 2-APB, 100 µM TPenA",0.63
same,Normalized currents,"WT TALK-2 channels; TALK-2 WT + 0.5 mM 2-APB, 1000 µM TPenA",0.25
same,Normalized currents,"WT TALK-2 channels; TALK-2 WT + 0.5 mM 2-APB, 10000 µM TPenA",0.08
same,Normalized currents,"WT TALK-2 channels; TALK-2 WT + 1.0 mM 2-APB, 1 µM TPenA",1.00
same,Normalized currents,"WT TALK-2 channels; TALK-2 WT + 1.0 mM 2-APB, 10 µM TPenA",0.87
same,Normalized currents,"WT TALK-2 channels; TALK-2 WT + 1.0 mM 2-APB, 100 µM TPenA",0.33
same,Normalized currents,"WT TALK-2 channels; TALK-2 WT + 1.0 mM 2-APB, 1000 µM TPenA",0.07
same,Normalized currents,"WT TALK-2 channels; TALK-2 WT + 1.0 mM 2-APB, 2000 µM TPenA",0.06
same,Normalized currents,"WT TALK-2 channels; TALK-2 WT + 1.0 mM 2-APB, 5000 µM TPenA",0.06
same,Normalized currents,"WT TALK-2 channels; TALK-2 WT + 1.0 mM 2-APB, 10000 µM TPenA",0.01
same,Residual currents with 1 mM TPenA,"WT TALK-2 channels; TALK-2 WT unstimulated, +40 mV",101.31%
same,Residual currents with 1 mM TPenA,"WT TALK-2 channels; TALK-2 WT, 0.2 mM 2-APB, +40 mV",47.38%
same,Residual currents with 1 mM TPenA,"WT TALK-2 channels; TALK-2 WT, 0.5 mM 2-APB, +40 mV",25.47%
same,Residual currents with 1 mM TPenA,"WT TALK-2 channels; TALK-2 WT, 1.0 mM 2-APB, +40 mV",6.78%
same,Normalized currents,"WT TALK-2 channels; TALK-2 WT, 1 µM TPenA",0.98
same,Normalized currents,"WT TALK-2 channels; TALK-2 WT, 10 µM TPenA",0.97
same,Normalized currents,"WT TALK-2 channels; TALK-2 WT, 100 µM TPenA",0.95
same,Normalized currents,"WT TALK-2 channels; TALK-2 WT, 1000 µM TPenA",0.95
same,Normalized currents,"WT TALK-2 channels; TALK-2 WT, 5000 µM TPenA",0.98
same,Normalized currents,"WT TALK-2 channels; TALK-2 WT, 10000 µM TPenA",0.99
same,TPenA block in the basal state,"WT TALK-2 channels; basal state (low PO), 1.0 mM TPenA",hardly any TPenA block
"NCCOB(c1ccccc1)c1ccccc1 [2-APB, 2-aminoethoxydiphenyl borate]",Fold activation 1 mM 2-APB,[1]; 1 mM,2.78 fold
same,further current increase by 2-APB,[1]; 1.0 mM 2-APB,only a minor further current increase
same,Rb+-induced current,WT TREK-1 channels; 0.001 mM 2-APB,2.62 nA
same,Rb+-induced current,WT TREK-1 channels; 0.01 mM 2-APB,2.54 nA
same,Rb+-induced current,WT TREK-1 channels; 0.1 mM 2-APB,1.29 nA
same,Rb+-induced current,WT TREK-1 channels; 0.5 mM 2-APB,-0.03 nA
same,Rb+-induced current,WT TREK-1 channels; 1.0 mM 2-APB,-0.44 nA
same,Rb+-induced current,WT TREK-1 channels; 2.0 mM 2-APB,0.00 nA
